“Also recorded” adds a separate entry of the source.

From US12168677B2, “Proteins for the treatment of epithelial barrier function disorders” (Genevive, Inc., priority 2017, dated 2024) come the findings set out here.

Data set [1] deals with HCT8 enterocytes and HT29-MTX goblet cells. The data set can be described thus: Co-culture trans-epithelial electrical resistance (TEER) assay with heat killed E. coli challenge. The note with it: staurosporine 100 nM, negative control. It is filed as cell-based, human. The protocol: Assays were performed as described below in trans-well plates where co-cultures of multiple cell types were performed utilizing a permeable membrane to separate cells. In the apical (top) chamber, human colonic epithelial cells, consisting of a mixture of enterocytes and goblet cells, were cultured until cells obtained tight junction formation and barrier function capacity as assessed by measurement of trans-epithelial electrical resistance (TEER). In the basolateral chamber, monocytes were cultured separately. Epithelial cells were primed with inflammatory cytokines. The assays measured the effect of a therapeutic protein, i.e., SG-15, on epithelial barrier function, wound healing, and production of cytokines. Cell culture. The HCT8 human enterocyte cell line (ATCC Cat. No. CCL-244) was maintained in RPMI-1640 medium supplemented with 10% fetal bovine serum, 100 IU/ml penicillin, 100 μg/ml streptomycin, 10 μg/ml gentamicin and 0.25 μg/ml amphotericin (cRPMI). […] Epithelial cells were trypsinized from culture flasks and viable cells determined by trypan blue counting. […] Trans-epithelial electrical resistance (TEER) readings were measured after the IFN-γ treatment and were used as the pre-treatment TEER values. […]

Data set [2] has the same test system. The data set can be described thus: Epithelial cell wound healing (Oris Cell Migration assay). Type of data set: cell-based, human. As to conditions: SG protein 1 μg/ml, EGF 30 ng/ml, staurosporine 100 nM; 48 hours. From the text: HCT8 enterocytes and HT29-MTX goblet cells were used in wound healing studies. The 96 well Oris Cell Migration assay containing plugs preventing cell attachment in the center of each well was used according to the manufacturer's instructions (Platypus Technologies, Madison, WI). The migration assay plates were warmed to room temperature prior to use and plugs were removed from 100% confluence wells prior to cell addition. The HCT8 enterocyte and HT29-MTX goblet cell lines were used at a 9:1 ratio with a total of 5×10^4 total cells added per well (4.5×10^4 HCT8 cells and 0.5×10^4 HT29-MTX cells). […] Plugs were then removed from all control and sample wells. Control wells included cells treated with the diluent vehicle as the blank, 30 ng/ml epidermal growth factor (EGF) as the positive control, and 100 nM staurosporine as the negative control, all diluted in cRPMI. Sample wells contained SG-15 protein at a concentration of 1 μg/ml diluted in cRPMI. 100% and 0% wells were cultured in cRPMI. […] Prior to staining for viable cells, plugs were removed from the 0% wells. Treatment media was removed and cells were washed in PBS containing 0.9 mM CaCl2) and 0.5 mM MgCl2. […] Samples were normalized between 100% and 0% samples and values expressed as a percent growth.

Data set [3] relates to DSS treated mice. The data set can be described thus: DSS model: colon length. It is filed as in vivo, C57BL/6 mice. The note with it: 50 nmoles/kg i.p. b.i.d.; 2.5% DSS 6 days. The protocol:
Eight-week old C57BL/6 mice were housed 5 animals were cage and given food and water ad libitum for 7 days. Following the 7-day acclimation period, treatments were initiated concurrently with addition of 2.5% DSS to the drinking water. […] The mice were treated with 2.5% dextran sodium sulfate (DSS) in their drinking water for 6 days. Treatments were continued with SG-15 or […]-GLP2 twice a day (b.i.d.) in the morning and evening (every 8 and 16 hr) with i.p. injections at 50 nmoles/kg. Fresh 2.5% DSS drinking water was prepared every 2 days. Colon length was measured in mice included in the DSS model described in Example 1E. […] The graph in FIG. 8 represents data pooled from the 2 individual experiments (n=20).

The test system of data set [4] is DSS treated mice. The data set can be described thus: DSS model: colon weight to length ratio. Type of data set: in vivo, C57BL/6 mice. As to conditions: Gly2-GLP2 i.p. b.i.d.; 2.5% DSS 6 days. Here is the method:
Eight-week old C57BL/6 mice were housed 5 animals were cage and given food and water ad libitum for 7 days. Following the 7-day acclimation period, treatments were initiated concurrently with addition of 2.5% DSS to the drinking water. […] The mice were treated with 2.5% dextran sodium sulfate (DSS) in their drinking water for 6 days. Treatments were continued with SG-15 or […]-GLP2 twice a day (b.i.d.) in the morning and evening (every 8 and 16 hr) with i.p. injections at 50 nmoles/kg. Fresh 2.5% DSS drinking water was prepared every 2 days. Colon length and weight were measured in mice included in the DSS model study described in Example 1E. […] Accordingly, the ratio of tissue weight to length can be used as a readout of DSS induced tissue damage. SG-15 administration to DSS treated mice (Example 1E) reduced the colon weight to length ratio elicited by DSS (DSS=3.9 mg/mm, DSS+SG-15=3.5 mg/mm; p=0.13). […] However, no difference was observed between treated with SG-15 as compared to treatment with […]GLP2. The graph in FIG. 9 represents data pooled from the 2 individual experiments (n=20).

Details of data set [5]: species or system mice. The note with it: mouse, in vivo, ip.

Turning to `CN[C@@H]1C[C@H]2O[C@@](C)([C@@H]1OC)n1c3ccccc3c3c4c(c5c6ccccc6n2c5c31)C(=O)NC4` [staurosporine, reference compound], in data set [1], the “Effect of control compound on TEER” value was “drastic decrease in TEER”. Further, in data set [2], the “Wound healing, percent growth” value was “suppressing cell proliferation”. With “Gly2-GLP2: a stable analog of glucagon-like peptide 2 (GLP2), positive control in DSS model”, in the data set on DSS treated mice [3], the “Colon length / colon shortening elicited by DSS treatment” value is on record as “significant improvement in colon length” and the “Colon length, Gly2-GLP2 compared with SG protein” value was “significant improvement over SG-16; also recorded: significant improvement over SG-17; also recorded: significant improvement over SG-18”. The “Colon weight to length ratio, effect of positive control in DSS mice” value in the data set with DSS treated mice [4] is on record as “significant reduction in colon weight to length ratio”.

For the compound “epidermal growth factor (NSDSECPLSHDGYCLHDGVCMYIEALDKYACNCVVGYIGERCQYRDLKWWELR; Epidermal growth factor; UniProt P01133 971-1023, looked up) [EGF, positive control in wound healing assay, reference compound]”, the “Wound healing, percent growth” value in data set [2] is recorded as “increasing proliferation”. Consider “fluorescently labeled bovine serum albumin: tracer protein for tracking studies following intraperitoneal injection”, for which the “Time at which protein reached the colon after i.p. delivery” value in data set [5] came to 6 h.
